Data from PubChem BioAssay AID1224921 (Broad Institute, 2016).
The source made the active and inactive calls. The rule behind the calls is not given here.

Each compound was assayed on Clostridioides difficile clinical isolate growth, OD600, 24 h (assay: inhibitors of Clostridioides difficile proliferation – 4-point retest, confirmation (AID 1224921)).

CCNC(=O)C[C@@H]1CC[C@@H]2[C@H](COC[C@H](O)CN2C(=O)Nc2ccc(Cl)c(Cl)c2)O1 and CCNC(=O)C[C@H]1CC[C@@H]2[C@H](COC[C@@H](O)CN2C(=O)Nc2ccc(Cl)c(Cl)c2)O1 are within 1.5-fold of each other in AC50: 4.07 µM for the first, 4.25 µM for the second.

Compared with CN(C)CC(=O)N[C@H]1CC[C@H](CCNC(=O)Nc2ccc(C(F)(F)F)cc2)O[C@H]1CO, CN(C)CC(=O)N[C@@H]1CC[C@@H](CCNC(=O)Nc2ccc(C(F)(F)F)cc2)O[C@H]1CO is 2.4-fold lower in AC50: 10.9 µM for the first, 4.63 µM for the second.

Going from O=C(C[C@H]1CC[C@H]2[C@@H](COC[C@H](O)CN2C(=O)Nc2cc(Cl)cc(Cl)c2)O1)N1CCCCC1 to O=C(C[C@H]1CC[C@@H]2[C@H](COC[C@H](O)CN2C(=O)Nc2cc(Cl)cc(Cl)c2)O1)N1CCOCC1, the AC50 rises from 3.29 µM to 9.61 µM (2.9-fold).

Compared with O=C(C[C@H]1CC[C@H]2[C@@H](COC[C@H](O)CN2C(=O)Nc2ccc(Cl)c(Cl)c2)O1)NCc1ccncc1, O=C(C[C@H]1CC[C@H]2[C@@H](COC[C@H](O)CN2C(=O)Nc2ccc(Cl)c(Cl)c2)O1)NCc1ccc(F)cc1 is 3.6-fold higher in AC50: 0.575 µM for the first, 2.08 µM for the second.

First: C[C@@H](NC(=O)C[C@H]1CC[C@H]2[C@@H](COC[C@H](O)CN2C(=O)Nc2cccc(Cl)c2)O1)c1ccccc1
Second: C[C@H](NC(=O)C[C@H]1CC[C@H]2[C@@H](COC[C@@H](O)CN2C(=O)Nc2cc(Cl)cc(Cl)c2)O1)c1ccccc1
The AC50 of the first is 1.8-fold lower: 9.84 µM for the first, 17.9 µM for the second.

Going from CCCNC(=O)C[C@@H]1CC[C@H]2[C@@H](COC[C@@H](O)CN2C(=O)Nc2ccc(Cl)c(Cl)c2)O1 to CCCNC(=O)C[C@@H]1CC[C@H]2[C@@H](COC[C@H](O)CN2C(=O)Nc2ccc(Cl)c(Cl)c2)O1, the AC50 rises from 2.59 µM to 5.98 µM (2.3-fold).

O=C(C[C@H]1CC[C@H]2[C@@H](COC[C@@H](O)CN2C(=O)Nc2ccc(C(F)(F)F)cc2)O1)NCC1CCCCC1 and O=C(C[C@H]1CC[C@@H]2[C@H](COC[C@H](O)CN2C(=O)Nc2ccc(C(F)(F)F)cc2)O1)NCC1CCCCC1 are within 1.5-fold of each other in AC50: 1.27 µM for the first, 1.21 µM for the second.

Going from O=C(NCC[C@H]1CC[C@@H](NC(=O)C2CC2)[C@H](CO)O1)Nc1ccc(C(F)(F)F)cc1 to O=C(NCC[C@H]1CC[C@H](NC(=O)C2CC2)[C@H](CO)O1)Nc1ccc(C(F)(F)F)cc1, the AC50 rises from 9.05 µM to 16 µM (1.8-fold).

First: COc1ccc(CN(C)C[C@H]2OCCCC[C@H](C)Oc3ccc(NC(=O)Nc4ccc(C(F)(F)F)cc4)cc3C(=O)N([C@@H](C)CO)C[C@@H]2C)cc1
Second: COc1ccc(CN(C)C[C@H]2OCCCC[C@@H](C)Oc3ccc(NC(=O)Nc4ccc(C(F)(F)F)cc4)cc3C(=O)N([C@@H](C)CO)C[C@@H]2C)cc1
The AC50 of the first is 3.5-fold higher: 16.6 µM for the first, 4.74 µM for the second.

CO[C@H]1CN(C)C(=O)c2cc(NC(=O)Nc3cc(Cl)cc(Cl)c3)ccc2OC[C@H](C)NC[C@H]1C and CO[C@H]1CN(C)C(=O)c2cc(NC(=O)Nc3cc(Cl)cc(Cl)c3)ccc2OC[C@@H](C)NC[C@@H]1C are within 1.5-fold of each other in AC50: 11.6 µM for the first, 14.7 µM for the second.

O=C(C[C@H]1CC[C@@H]2[C@H](COC[C@H](O)CN2C(=O)Nc2ccc(C(F)(F)F)cc2)O1)NCC1CC1 and O=C(C[C@@H]1CC[C@H]2[C@@H](COC[C@@H](O)CN2C(=O)Nc2ccc(C(F)(F)F)cc2)O1)NCC1CC1 are within 1.5-fold of each other in AC50: 3.63 µM for the first, 3.98 µM for the second.

Going from C[C@H](CO)N1C[C@H](C)[C@@H](CN(C)Cc2ccc(-c3ccccc3)cc2)Oc2c(NC(=O)c3ccncc3)cccc2C1=O to C[C@H]1CCCCO[C@H](CN(C)Cc2ccccc2)[C@@H](C)CN([C@@H](C)CO)C(=O)c2cc(NC(=O)Nc3ccc(C(F)(F)F)cc3)ccc2O1, the AC50 rises from 6.59 µM to 18.2 µM (2.8-fold).

Going from CNC(=O)C[C@H]1CC[C@@H]2[C@H](COC[C@@H](O)CN2C(=O)Nc2ccc(Cl)c(Cl)c2)O1 to CNC(=O)C[C@@H]1CC[C@@H]2[C@H](COC[C@@H](O)CN2C(=O)Nc2ccc(Cl)c(Cl)c2)O1, the AC50 falls from 8.58 µM to 2.31 µM (3.7-fold).

Compared with COc1ccccc1CNC(=O)C[C@@H]1CC[C@H]2[C@@H](COC[C@@H](O)CN2C(=O)Nc2ccc(C(F)(F)F)cc2)O1, CCNC(=O)C[C@H]1CC[C@@H]2[C@H](COC[C@H](O)CN2C(=O)Nc2ccc(C(F)(F)F)cc2)O1 is 1.6-fold higher in AC50: 2.14 µM for the first, 3.45 µM for the second.

O=C(C[C@@H]1CC[C@H]2[C@@H](COC[C@@H](O)CN2C(=O)Nc2ccc(C(F)(F)F)cc2)O1)NCC1CCCCC1 and O=C(C[C@H]1CC[C@@H]2[C@H](COC[C@H](O)CN2C(=O)Nc2ccc(C(F)(F)F)cc2)O1)NCCc1ccncc1 are within 1.5-fold of each other in AC50: 3.56 µM for the first, 3.55 µM for the second.

Compared with CO[C@H](CN(C)C(=O)C1CCOCC1)[C@@H](C)CN(C(=O)Nc1ccc(C(F)(F)F)cc1)[C@@H](C)CO, CO[C@H](CN(C)C(=O)C1CC1)[C@@H](C)CN(C(=O)Nc1ccc(C(F)(F)F)cc1)[C@@H](C)CO is 2.2-fold higher in AC50: 3.16 µM for the first, 6.86 µM for the second.

O=C(C[C@@H]1CC[C@@H]2[C@H](COC[C@@H](O)CN2C(=O)Nc2ccc(Cl)c(Cl)c2)O1)NCc1ccc(Cl)cc1 and O=C(C[C@H]1CC[C@H]2[C@@H](COC[C@H](O)CN2C(=O)Nc2ccc(Cl)c(Cl)c2)O1)NCc1ccc(Cl)cc1 are within 1.5-fold of each other in AC50: 0.98 µM for the first, 1.07 µM for the second.

CNC[C@@H]1OCCCC[C@@H](C)Oc2ccc(NC(=O)Nc3ccc(C(F)(F)F)cc3)cc2C(=O)N([C@@H](C)CO)C[C@@H]1C and CNC[C@H]1OCCCC[C@@H](C)Oc2ccc(NC(=O)Nc3ccc(C(F)(F)F)cc3)cc2C(=O)N([C@H](C)CO)C[C@H]1C are within 1.5-fold of each other in AC50: 17.5 µM for the first, 15.4 µM for the second.

C[C@@H]1CN([C@H](C)CO)C(=O)Cc2cc(NS(=O)(=O)c3ccc(Cl)cc3)ccc2O[C@H]1CN(C)CC1CCCCC1 and C[C@@H]1CN([C@@H](C)CO)C(=O)c2cc(NS(=O)(=O)c3ccc(Cl)cc3)ccc2O[C@@H](C)CCCCO[C@H]1CN(C)CC1CCCCC1 are within 1.5-fold of each other in AC50: 18 µM for the first, 13.1 µM for the second.

Compared with O=C(C[C@@H]1CC[C@@H]2[C@H](COC[C@@H](O)CN2C(=O)Nc2ccc(Cl)c(Cl)c2)O1)NC1CCC1, O=C(C[C@H]1CC[C@@H]2[C@H](COC[C@H](O)CN2C(=O)Nc2ccc(Cl)c(Cl)c2)O1)NC1CCC1 is 1.6-fold higher in AC50: 2.82 µM for the first, 4.46 µM for the second.

C[C@H](NC(=O)C[C@H]1CC[C@@H]2[C@H](COC[C@H](O)CN2C(=O)Nc2cc(Cl)cc(Cl)c2)O1)c1ccccc1 and O=C(C[C@@H]1CC[C@@H]2[C@H](COC[C@H](O)CN2C(=O)Nc2cc(Cl)cc(Cl)c2)O1)NCC1CC1 are within 1.5-fold of each other in AC50: 11.5 µM for the first, 16.9 µM for the second.

Going from O=C(C[C@@H]1CC[C@H]2[C@@H](COC[C@H](O)CN2S(=O)(=O)c2ccc(Cl)cc2)O1)NCc1ccc(Cl)c(Cl)c1 to O=C(C[C@H]1CC[C@@H]2[C@H](COC[C@H](O)CN2C(=O)Nc2ccc(Cl)c(Cl)c2)O1)NCc1ccc(Cl)c(Cl)c1, the AC50 falls from 30.9 µM to < 0.5 µM.

CC(=O)N[C@H]1CC[C@H](CCNC(=O)Nc2ccc(C(F)(F)F)cc2)O[C@H]1CO and CCC(=O)N[C@H]1CC[C@H](CCNC(=O)Nc2ccc(C(F)(F)F)cc2)O[C@@H]1CO are within 1.5-fold of each other in AC50: 4.52 µM for the first, 3.05 µM for the second.

First: CO[C@H]1CN(C)C(=O)c2cc(NC(=O)Nc3cc(Cl)cc(Cl)c3)ccc2OC[C@H](C)NC[C@@H]1C
Second: CO[C@@H]1CN(C)C(=O)c2cc(NC(=O)Nc3ccc(Cl)c(Cl)c3)ccc2OC[C@@H](C)NC[C@@H]1C
The AC50 of the first is 2.1-fold higher: 9.09 µM for the first, 4.25 µM for the second.

C[C@@H]1CN([C@@H](C)CO)C(=O)c2cc(NC(=O)Nc3ccc(C(F)(F)F)cc3)ccc2O[C@@H](C)CCCCO[C@H]1CN(C)Cc1ccc2c(c1)OCO2 and C[C@@H]1CN([C@@H](C)CO)C(=O)c2cc(NC(=O)Nc3ccc(C(F)(F)F)cc3)ccc2O[C@@H](C)CCCCO[C@H]1CN(C)Cc1ccccc1 are within 1.5-fold of each other in AC50: 23.9 µM for the first, 26.9 µM for the second.

First: Cc1ccc(S(=O)(=O)Nc2ccc3c(c2)C(=O)N([C@@H](C)CO)C[C@H](C)[C@@H](CN(C)Cc2ccc4c(c2)OCO4)OCCCC[C@@H](C)O3)cc1
Second: C[C@@H]1CCCCO[C@H](CN(C)CC2CCCCC2)[C@H](C)CN([C@H](C)CO)C(=O)c2cc(NC(=O)Nc3ccc(C(F)(F)F)cc3)ccc2O1
The AC50 of the first is 1.7-fold lower: 7.88 µM for the first, 13.6 µM for the second.

Going from O=C(C[C@@H]1CC[C@H]2[C@@H](COC[C@@H](O)CN2C(=O)Nc2cc(Cl)cc(Cl)c2)O1)N1CCOCC1 to O=C(C[C@H]1CC[C@@H]2[C@H](COC[C@H](O)CN2C(=O)Nc2ccc(Cl)c(Cl)c2)O1)NCc1ccc(F)cc1, the AC50 falls from 10.7 µM to 1.91 µM (5.6-fold).

O=C(NCC[C@H]1CC[C@H](NC(=O)C2CC2)[C@@H](CO)O1)Nc1ccc(C(F)(F)F)cc1 and O=C(NCC[C@@H]1CC[C@@H](NC(=O)c2cccnc2)[C@@H](CO)O1)Nc1ccc(C(F)(F)F)cc1 are within 1.5-fold of each other in AC50: 15.6 µM for the first, 13.8 µM for the second.

First: COC(=O)[C@H]1[C@H](CO)[C@H]2Cn3c(ccc(-c4ccccc4)c3=O)[C@H]2N1CC1CCCCC1
Second: C[C@@H]1CN([C@@H](C)CO)C(=O)c2cccc(NC(=O)Nc3ccc(C(F)(F)F)cc3)c2O[C@@H]1CN(C)CC1CCCCC1
The AC50 of the first is 4.6-fold higher: 16.7 µM for the first, 3.63 µM for the second.

O=C(C[C@@H]1CC[C@@H]2[C@H](COC[C@H](O)CN2C(=O)Nc2ccc(C(F)(F)F)cc2)O1)NC1Cc2ccccc2C1 and O=C(C[C@H]1CC[C@@H]2[C@H](COC[C@@H](O)CN2S(=O)(=O)c2ccc(F)cc2)O1)NCC1CCCCC1 are within 1.5-fold of each other in AC50: 19 µM for the first, 15.8 µM for the second.

C[C@H]1CN([C@@H](C)CO)C(=O)CCCn2nncc2CO[C@@H]1CN(C)C(=O)Nc1ccc(C(F)(F)F)cc1 and C[C@H]1CN([C@@H](C)CO)S(=O)(=O)c2ccc(C#CC3CCCCC3)cc2O[C@H]1CN(C)C are within 1.5-fold of each other in AC50: 17.7 µM for the first, 16.4 µM for the second.

With CO[C@H]1CN(C)C(=O)c2cc(NC(=O)Nc3ccc(Cl)c(Cl)c3)ccc2OC[C@H](C)NC[C@@H]1C the AC50 was 8.68 µM.

With N#C[C@@H]1[C@H](c2ccc(C#Cc3ccc(F)cc3)cc2)[C@@H](CO)N1C(=O)C1CCC1 the AC50 was > 60 µM (inactive).
For CS(=O)(=O)N1[C@H](C#N)[C@@H](c2ccc(C#CC3CCCC3)cc2)[C@@H]1CO, the AC50 was > 70 µM (inactive).
For COc1ccc(C(=O)Nc2ccc3c(c2)OC[C@@H](C)N(C(C)=O)C[C@H](C)[C@@H](OC)CN(C)C3=O)cc1, the AC50 was > 60 µM (inactive).
For C[C@H]1CN([C@@H](C)CO)C(=O)c2ccccc2-c2ccccc2CO[C@H]1CN(C)Cc1ccc(F)cc1, the AC50 was > 16 µM (inactive).
In the case of O=C(C[C@H]1CC[C@H](NC(=O)CN2CCOCC2)[C@@H](CO)O1)NCc1cccc(F)c1, the AC50 is reported as > 60 µM (inactive).
For C[C@@H]1CCCCO[C@@H](CN(C)Cc2ccc3c(c2)OCO3)[C@H](C)CN([C@@H](C)CO)C(=O)c2cc(NC(=O)Nc3ccc(C(F)(F)F)cc3)ccc2O1, the AC50 was > 60 µM (inactive).
In the case of CO[C@H]1CN(C)C(=O)c2ccc(NC(=O)c3nc4ccccc4s3)cc2OC[C@H](C)N(Cc2ccncc2)C[C@@H]1C, the AC50 is reported as > 60 µM (inactive).
For Cc1ccc(S(=O)(=O)N2C[C@@H](O)COC[C@H]3O[C@H](CC(=O)NCc4ccc(Cl)c(Cl)c4)CC[C@@H]32)cc1, the AC50 was > 60 µM (inactive).
For C[C@@H]1CN([C@H](C)CO)C(=O)c2cc(NC(=O)Nc3cccc4ccccc34)ccc2O[C@@H](C)CCCCO[C@@H]1CN(C)CC1CCCCC1, the AC50 was > 60 µM (inactive).
